Here are results for eight molecules from EP0863148A1, “Compounds derived from adenosine, use of such compound as a medicament, method for synthesizing such a compound and intermediates thereof” (K.U. LEUVEN RESEARCH & DEVELOPMENT, priority 1997, dated 1998).

One experiment concerns the target T1, adenosine A1 receptor (Rattus norvegicus, UniProt P25099).
T1 construct: adenosine A1 receptor in rat brain cortex; from tissue; host or cells: rat brain cortex
T1 sequence (P25099 1-326): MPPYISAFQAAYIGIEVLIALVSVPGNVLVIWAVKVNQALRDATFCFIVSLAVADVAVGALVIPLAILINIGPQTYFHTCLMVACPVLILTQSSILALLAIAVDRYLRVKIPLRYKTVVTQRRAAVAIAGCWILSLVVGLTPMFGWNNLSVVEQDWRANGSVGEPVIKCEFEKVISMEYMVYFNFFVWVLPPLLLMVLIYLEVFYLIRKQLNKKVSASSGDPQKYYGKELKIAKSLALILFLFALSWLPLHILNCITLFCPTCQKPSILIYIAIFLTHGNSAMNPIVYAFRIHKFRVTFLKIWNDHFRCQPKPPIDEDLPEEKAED
Description: Radioligand binding assay, displacement of [3H]DPCPX, in the absence and presence of 1 mM GTP. The note with it: for Ki: rat brain cortex, [3H]DPCPX; for GTP shift: ratio of the apparent Ki values in the presence and absence of 1 mM GTP. The procedure:
The compounds were assayed for A1 affinity (Ki values expressed in µM) using the tritiated antagonist [^3H]-1,3-dipropyl-8-cyclopentylxanthine (DPCPX). Displacement experiments were performed in the absence and presence of 1 mM GTP, allowing the determination of the GTP shift (i.e., the ratio of the apparant Ki values in the presence and absence of GTP, respectively). This shift is an in vitro parameter often indicative for intrinsic activity.
Background: Loss of bound radioactivity is the signal in a displacement assay; it reports binding, not function.

In the next experiment the target is T2, A1 receptor (Homo sapiens, UniProt P30542).
T2 sequence (P30542 1-326): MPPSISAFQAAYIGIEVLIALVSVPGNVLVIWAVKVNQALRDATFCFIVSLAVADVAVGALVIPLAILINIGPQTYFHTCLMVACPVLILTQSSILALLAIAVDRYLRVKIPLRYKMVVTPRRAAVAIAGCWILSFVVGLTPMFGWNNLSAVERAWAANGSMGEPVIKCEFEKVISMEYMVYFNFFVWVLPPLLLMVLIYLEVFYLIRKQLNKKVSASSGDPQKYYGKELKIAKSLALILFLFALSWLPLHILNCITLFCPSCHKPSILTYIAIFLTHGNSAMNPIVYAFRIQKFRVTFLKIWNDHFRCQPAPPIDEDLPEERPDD
The conditions noted are these: cited from earlier work.

The next experiment concerns A2a receptors. In words: Selectivity for A1 vs A2a receptors (method not described). The format is binding.
Chain of A2a receptors (P29274 whole entry): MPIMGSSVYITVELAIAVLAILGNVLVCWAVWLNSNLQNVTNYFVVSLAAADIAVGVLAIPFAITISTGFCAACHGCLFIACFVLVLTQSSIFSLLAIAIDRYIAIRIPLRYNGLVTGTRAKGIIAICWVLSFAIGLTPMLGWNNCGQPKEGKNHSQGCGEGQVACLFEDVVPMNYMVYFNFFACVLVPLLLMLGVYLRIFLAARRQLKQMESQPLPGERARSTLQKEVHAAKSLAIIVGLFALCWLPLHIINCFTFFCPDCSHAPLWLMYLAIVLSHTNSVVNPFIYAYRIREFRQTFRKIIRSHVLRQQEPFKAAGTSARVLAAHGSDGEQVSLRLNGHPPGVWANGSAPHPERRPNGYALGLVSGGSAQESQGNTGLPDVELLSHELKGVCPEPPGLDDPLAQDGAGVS

As a reminder, the Ki is a dissociation constant, usually derived from enzyme kinetics or from competition with a known ligand. Regarding `Nc1ncnc2c1ncn2[C@@H]1O[C@H](CO)C[C@H]1O` [3'-deoxyadenosine, reference compound], the values for the Ki at adenosine A1 receptor (absence of GTP) and at adenosine A1 receptor (presence of 1 mM GTP) were 7.12 ± 3.62 µM and 15.2 ± 2 µM, respectively. Further, at adenosine A1 receptor, the GTP shift is 2.1±1.4.
For the molecule `[N-]=[N+]=NC1C(CO)OC(n2cnc3c(NC4CCCC4)ncnc32)C1O` (stereo not shown) [compound 3], the “affinity for A1 receptors” value on adenosine A1 receptor (stated in words) was “relatively poor affinity”.
Turning to `Cc1ccc(C(=O)N[C@@H]2[C@@H](O)[C@H](n3cnc4c(NC5CCCC5)ncnc43)O[C@@H]2CO)cc1` [b, 9-[3-Deoxy-3-(4-methylbenzamido)-β-D-xylofuranosyl]-N^6-cyclopentyladenine], the inhibition constant Ki on adenosine A1 receptor (absence of GTP) worked out at 0.083 ± 0.015 µM; on adenosine A1 receptor (presence of 1 mM GTP), 0.068 ± 0.01 µM. Moreover, at adenosine A1 receptor, the GTP shift was 0.84±0.19.
On to `OCC1CC(O)C(n2cnc3c(NC4CCCC4)ncnc32)O1` (stereo not shown) [3'-deoxy-CPA, reference compound], for which, at A1 receptor (stated in words, background), the “affinity for the A1 receptor” value is “submicromolar affinity”. Also, the Ki at adenosine A1 receptor (absence of GTP) was 0.11 ± 0.03 µM; at adenosine A1 receptor (presence of 1 mM GTP), 0.47 ± 0.04 µM. Also, the GTP shift at adenosine A1 receptor was 4.3±1.2.
Take `C[C@H](Cc1ccccc1)Nc1ncnc2c1ncn2[C@@H]1O[C@H](CO)C[C@H]1O` [3'-deoxy-R-PIA]: the drop in affinity at A1 receptor (A1 receptor affinity, removal of the 3'-hydroxyl group of R-PIA) is given as 30 fold.
On to `O=C(N[C@@H]1[C@@H](O)[C@H](n2cnc3c(NC4CCCC4)ncnc32)O[C@@H]1CO)c1ccccc1` [a, 9-(3-Benzamido-3-deoxy-β-D-xylofuranosyl)-N^6-cyclopentyladenine], for which the results for the Ki at adenosine A1 receptor (absence of GTP) and at adenosine A1 receptor (presence of 1 mM GTP) were 0.4 ± 0.13 µM and 0.31 ± 0.05 µM, respectively. The GTP shift on adenosine A1 receptor was determined as 0.80±0.13.
For the molecule `Cc1ccc(C(=O)N[C@@H]2[C@@H](O)[C@H](n3cnc4c(NC5CCCC5)ncnc43)O[C@@H]2CO)cc1C` [c, 9-[3-Deoxy-3-(3,4-dimethylbenzamido)-β-D-xylofuranosyl]-N^6-cyclopentyladenine], the “selectivity for A1 vs A2a receptors” value in the experiment with A2a receptors came to 160 times. Besides, the Ki is 0.0236 ± 0.0025 µM at adenosine A1 receptor (absence of GTP) and 0.0174 ± 0.0042 µM on adenosine A1 receptor (presence of 1 mM GTP). Besides, the GTP shift on adenosine A1 receptor is given as 0.73±0.11.
Regarding `O=C(N[C@@H]1[C@@H](O)[C@H](n2cnc3c(NC4CCCC4)ncnc32)O[C@@H]1CO)c1ccc(Cl)c(Cl)c1` [d, 9-[3-Deoxy-3-(3,4-dichlorobenzamido)-β-D-xylofuranosyl]-N^6-cyclopentyladenine], the Ki turned out to be 0.0325 ± 0.00031 µM at adenosine A1 receptor (absence of GTP) and 0.0237 ± 0.0014 µM at adenosine A1 receptor (presence of 1 mM GTP). Moreover, the GTP shift at adenosine A1 receptor was 0.73±0.09.
